Experimental findings from patent US10065956B2, “Ethynyl derivatives” (Hoffmann-La Roche Inc., priority 2015, dated 2018) are described below.

The target of the assay is T1, human mGlu4 receptor (Homo sapiens, UniProt Q14833).
T1 construct: expressed in transfected cells; host or cells: monoclonal HEK-293 cell line, stably transfected
The experiment in a line: Ca2+ mobilization in vitro assay on recombinant human mGlu4 expressed in HEK293 cells (PAM, L-AP4 at EC20). In kind it is cell-based. Particulars: for Emax: HEK293, maximal response in % of the maximal stimulatory effect obtained with saturating concentrations of L-AP4, read-out: Eff. (%); for EC50: HEK293 cells expressing human mGlu4, L-AP4 added at EC20. An excerpt: FIG. 1: Illustration of the experimental outline for mGlu4 PAM Ca2+ mobilization screening assay and the determination of EC50 and % Emax values.
Determination of EC50 Values Using a Ca2+ Mobilization In Vitro Assay on Recombinant Human mGlu4 Expressed in HEK293 Cells:
A monoclonal HEK-293 cell line stably transfected with a cDNA encoding for the human mGlu4 receptor was generated; for the work with mGlu4 Positive Allosteric Modulators (PAMs), a cell line with low receptor expression levels and low constitutive receptor activity was selected to allow the differentiation of agonistic versus PAM activity. Cells were cultured according to standard protocols (Freshney, 2000) in Dulbecco's Modified Eagle Medium with high glucose supplemented with 1 mM glutamine, 10% (vol/vol) heat-inactivated bovine calf serum, Penicillin/Streptomycin, 50 μg/ml hygromycin and 15 μg/ml blasticidin (all cell culture reagents and antibiotics from Invitrogen, Basel, Switzerland).
About 24 hrs before an experiment, 5×10^4 cells/well were seeded in poly-D-lysine coated, black/clear-bottomed 96-well plates. The cells were loaded with 2.5 μM Fluo-4AM in loading buffer (1×HBSS, 20 mM HEPES) for 1 hr at 37° C. and washed five times with loading buffer. The cells were transferred into a Functional Drug Screening System 7000 (Hamamatsu, Paris, France), and 11 half logarithmic serial dilutions of test compound at 37° C. were added and the cells were incubated for 10-30 min. with on-line recording of fluorescence. Following this pre-incubation step, the agonist (2S)-2-amino-4-phosphonobutanoic acid (L-AP4) was added to the cells at a concentration corresponding to EC20 with on-line recording of fluorescence; in order to account for day-to-day variations in the responsiveness of cells, the EC20 of L-AP4 was determined immediately ahead of each experiment by recording of a full dose-response curve of L-AP4. Responses were measured as peak increase in fluorescence minus basal (i.e. fluorescence without addition of L-AP4), normalized to the maximal stimulatory effect obtained with saturating concentrations of L-AP4. Graphs were plotted with the % maximal stimulatory using XLfit, a curve fitting program that iteratively plots the data using Levenburg Marquardt algorithm. The single site competition analysis equation used was y=A+((B−A)/(1+((x/C)D))), where y is the % maximal stimulatory effect, A is the minimum y, B is the maximum y, C is the EC50, x is the log 10 of the concentration of the competing compound and D is the slope of the curve (the Hill Coefficient). From these curves the EC50 (drug concentration at which 50% of the maximal receptor activation was achieved), the Hill coefficient as well as the maximal response in % of the maximal stimulatory effect obtained with saturating concentrations of L-AP4 were calculated (see FIG. 1). […] A depression of the signal observed after addition of the EC20 concentration of L-AP4 was indicative of an inhibitory activity of the test compound.

As a reminder, the EC50 is the concentration that produces a half-maximal response.

T1 sequence (Q14833 33-912): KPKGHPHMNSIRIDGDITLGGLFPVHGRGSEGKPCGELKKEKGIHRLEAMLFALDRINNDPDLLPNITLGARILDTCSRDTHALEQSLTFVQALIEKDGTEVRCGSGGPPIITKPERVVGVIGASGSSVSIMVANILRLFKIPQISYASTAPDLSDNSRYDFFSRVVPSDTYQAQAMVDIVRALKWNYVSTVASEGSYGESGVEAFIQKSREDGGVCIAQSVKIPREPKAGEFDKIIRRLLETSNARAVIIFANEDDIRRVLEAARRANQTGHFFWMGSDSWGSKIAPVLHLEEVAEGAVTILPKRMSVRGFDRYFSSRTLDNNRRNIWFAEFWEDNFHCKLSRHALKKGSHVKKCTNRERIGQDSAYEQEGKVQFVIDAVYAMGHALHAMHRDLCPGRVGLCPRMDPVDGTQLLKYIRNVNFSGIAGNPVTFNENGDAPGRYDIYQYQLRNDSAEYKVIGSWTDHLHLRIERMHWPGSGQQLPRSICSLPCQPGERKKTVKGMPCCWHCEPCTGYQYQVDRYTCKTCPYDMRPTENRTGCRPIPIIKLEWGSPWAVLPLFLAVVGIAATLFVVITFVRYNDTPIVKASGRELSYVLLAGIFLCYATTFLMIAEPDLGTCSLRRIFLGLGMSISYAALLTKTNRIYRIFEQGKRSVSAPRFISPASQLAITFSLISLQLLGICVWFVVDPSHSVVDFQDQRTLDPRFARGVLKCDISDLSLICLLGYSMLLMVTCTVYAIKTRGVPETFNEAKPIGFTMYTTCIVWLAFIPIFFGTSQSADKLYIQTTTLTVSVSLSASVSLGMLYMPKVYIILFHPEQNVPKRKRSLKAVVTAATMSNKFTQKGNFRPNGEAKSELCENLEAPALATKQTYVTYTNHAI

For the compound `CN1C(=O)N(c2c(F)cc(C#Cc3ccccc3)cc2F)C(=O)C[C@@]1(C)c1cnn(C)n1` [Example 33, (6S)-3-[2,6-Difluoro-4-(2-phenylethynyl)phenyl]-1,6-dimethyl-6-(2-methyltriazol-4-yl)hexahydropyrimidine-2,4-dione], the Emax is 196% and the EC50 turned out to be 59 nM.

Regarding `CN1C(=O)N(c2c(F)cc(C#Cc3ccccc3)cc2F)C(=O)C[C@@]1(C)c1nn(C)c2ncccc12` [Example 17, (6S)-3-[2,6-Difluoro-4-(2-phenylethynyl)phenyl]-1,6-dimethyl-6-(1-methylpyrazolo[3,4-b]pyridin-3-yl)hexahydropyrimidine-2,4-dione], the Emax was found to be 154% and the EC50 was found to be 126 nM.

For `CN1C(=O)N(c2c(F)cc(C#Cc3ccccc3)cc2F)C(=O)C[C@@]1(C)c1cn(C)nn1` [Example 34, (6S)-3-[2,6-Difluoro-4-(2-phenylethynyl)phenyl]-1,6-dimethyl-6-(1-methyltriazol-4-yl)hexahydropyrimidine-2,4-dione], the Emax was determined as 207% and the EC50 was 71 nM.

As for `CN1C(=O)N(c2c(F)cc(C#Cc3ccccc3)cc2F)C(=O)C[C@@]1(C)c1ccn(CC(C)(C)O)n1` [Example 63, (6S)-3-[2,6-Difluoro-4-(2-phenylethynyl)phenyl]-6-[1-(2-hydroxy-2-methyl-propyl)pyrazol-3-yl]-1,6-dimethyl-hexahydropyrimidine-2,4-dione], the Emax worked out at 99% and the EC50 turned out to be 71 nM.

In the case of `CN1C(=O)N(c2c(F)cc(C#Cc3cccnc3)cc2F)C(=O)C[C@@]1(C)c1cnn(C)c1` [Example 24, (6S)-3-[2,6-Difluoro-4-[2-(3-pyridyl)ethynyl]phenyl]-1,6-dimethyl-6-(1-methylpyrazol-4-yl)hexahydropyrimidine-2,4-dione], the Emax turned out to be 141% and the EC50 was 39 nM.

`CC[C@@]1(c2ccn(C)n2)CC(=O)N(c2c(F)cc(C#Cc3ccccc3)cc2F)C(=O)N1C` [Example 27, (6S)-3-[2,6-Difluoro-4-(2-phenylethynyl)phenyl]-6-ethyl-1-methyl-6-(1-methylpyrazol-3-yl)hexahydropyrimidine-2,4-dione]: the Emax came to 143% and the EC50 came out at 83 nM.

In the case of `CCN1C(=O)N(c2c(F)cc(C#Cc3ccccc3)cc2F)C(=O)C[C@@]1(C)c1cnn(C)c1` [Example 12, (6S)-3-[2,6-Difluoro-4-(2-phenylethynyl)phenyl]-1-ethyl-6-methyl-6-(1-methylpyrazol-4-yl)hexahydropyrimidine-2,4-dione], the Emax turned out to be 95% and the EC50 was determined as 67 nM.

`CN1C(=O)N(c2c(F)cc(C#Cc3ccccc3)cc2F)C(=O)C[C@@]1(C)c1cnn(CC(C)(C)O)c1` [Example 60, (6S)-3-[2,6-Difluoro-4-(2-phenylethynyl)phenyl]-6-[1-(2-hydroxy-2-methyl-propyl)pyrazol-4-yl]-1,6-dimethyl-hexahydropyrimidine-2,4-dione]: the Emax is 142% and the EC50 came out at 47 nM.

As to `CN1C(=O)N(c2c(F)cc(C#Cc3ccccc3)cc2F)C(=O)C[C@@]1(C)c1cnn(CCCO)c1` [Example 22, (6S)-3-[2,6-Difluoro-4-(2-phenylethynyl)phenyl]-6-[1-(3-hydroxypropyl)pyrazol-4-yl]-1,6-dimethyl-hexahydropyrimidine-2,4-dione], the Emax is 143% and the EC50 was determined as 56 nM.

As for `CN1C(=O)N(c2c(F)cc(C#Cc3ccccc3)cc2F)C(=O)C[C@@]1(C)c1nccs1` [Example 1, (6S)-3-[2,6-Difluoro-4-(2-phenylethynyl)phenyl]-1,6-dimethyl-6-thiazol-2-yl-hexahydropyrimidine-2,4-dione], the Emax stood at 119% and the EC50 was 113 nM.

For `CN1C(=O)N(c2c(F)cc(C#Cc3cccc(F)c3F)cc2F)C(=O)C[C@@]1(C)c1cn[nH]c1` [Example 55, (6S)-3-[4-[2-(2,3-Difluorophenyl)ethynyl]-2,6-difluoro-phenyl]-1,6-dimethyl-6-(1H-pyrazol-4-yl)hexahydropyrimidine-2,4-dione], the Emax was 134% and the half-maximal effective concentration (EC50) stood at 54 nM.

With `CN1C(=O)N(c2c(F)cc(C#Cc3ccccc3F)cc2F)C(=O)C[C@@]1(C)c1cn[nH]c1` [Example 53, (6S)-3-[2,6-Difluoro-4-[2-(2-fluorophenyl)ethynyl]phenyl]-1,6-dimethyl-6-(1H-pyrazol-4-yl)hexahydropyrimidine-2,4-dione], the Emax turned out to be 145% and the EC50 stood at 17 nM.

With `Cc1ncc([C@]2(C)CC(=O)N(c3c(F)cc(C#Cc4ccccc4)cc3F)C(=O)N2C)s1` [Example 39, (6S)-3-[2,6-Difluoro-4-(2-phenylethynyl)phenyl]-1,6-dimethyl-6-(2-methylthiazol-5-yl)hexahydropyrimidine-2,4-dione], the Emax came to 148% and the EC50 is 71 nM.

As to `CCn1cc([C@]2(C)CC(=O)N(c3c(F)cc(C#Cc4ccccc4)cc3F)C(=O)N2C)cn1` [Example 13, (6S)-3-[2,6-Difluoro-4-(2-phenylethynyl)phenyl]-6-(1-ethylpyrazol-4-yl)-1,6-dimethyl-hexahydropyrimidine-2,4-dione], the Emax amounted to 115% and the EC50 is 64 nM.

In the case of `CN1C(=O)N(c2c(F)cc(C#Cc3ccccc3)cc2F)C(=O)C[C@@]1(C)c1cc[nH]n1` [Example 10, (6S)-3-[2,6-Difluoro-4-(2-phenylethynyl)phenyl]-1,6-dimethyl-6-(1H-pyrazol-3-yl)hexahydropyrimidine-2,4-dione], the Emax came to 134% and the concentration giving a half-maximal response (EC50) was found to be 84 nM.

Turning to `CN1C(=O)N(c2c(F)cc(C#Cc3cccnc3)cc2F)C(=O)C[C@@]1(C)c1cn[nH]c1` [Example 36, (6S)-3-[2,6-Difluoro-4-[2-(3-pyridyl)ethynyl]phenyl]-1,6-dimethyl-6-(1H-pyrazol-4-yl)hexahydropyrimidine-2,4-dione], the Emax came to 164% and the EC50 was determined as 41 nM.

For `CN1C(=O)N(c2c(F)cc(C#Cc3ccccc3)cc2F)C(=O)C[C@@]1(C)c1cnn(CCO)c1` [Example 23, (6S)-3-[2,6-Difluoro-4-(2-phenylethynyl)phenyl]-6-[1-(2-hydroxyethyl)pyrazol-4-yl]-1,6-dimethyl-hexahydropyrimidine-2,4-dione], the Emax worked out at 147% and the EC50 is 108 nM.

Regarding `CN1C(=O)N(c2c(F)cc(C#Cc3ccc(F)cc3)cc2F)C(=O)C[C@@]1(C)c1cnn(C)c1` [Example 49, (6S)-3-[2,6-Difluoro-4-[2-(4-fluorophenyl)ethynyl]phenyl]-1,6-dimethyl-6-(1-methylpyrazol-4-yl)hexahydropyrimidine-2,4-dione], the Emax is 142% and the EC50 worked out at 55 nM.

Consider `CN1C(=O)N(c2c(F)cc(C#Cc3ccccc3)cc2Cl)C(=O)C[C@@]1(C)c1cnn(C)c1` [Example 44, (6S)-3-[2-Chloro-6-fluoro-4-(2-phenylethynyl)phenyl]-1,6-dimethyl-6-(1-methylpyrazol-4-yl)hexahydropyrimidine-2,4-dione], for which the Emax was 153% and the EC50 was found to be 99 nM.

Turning to `CC[C@@]1(c2cn[nH]c2)CC(=O)N(c2c(F)cc(C#Cc3cccnc3)cc2F)C(=O)N1C` [Example 51, (6S)-3-[2,6-Difluoro-4-[2-(3-pyridyl)ethynyl]phenyl]-6-ethyl-1-methyl-6-(1H-pyrazol-4-yl)hexahydropyrimidine-2,4-dione], the Emax was 136% and the EC50 was found to be 45 nM.

Consider `CN1C(=O)N(c2c(F)cc(C#Cc3ccccc3)cc2F)C(=O)C[C@@]1(C)c1cn[nH]c1` [Example 16, (6S)-3-[2,6-Difluoro-4-(2-phenylethynyl)phenyl]-1,6-dimethyl-6-(1H-pyrazol-4-yl)hexahydropyrimidine-2,4-dione], for which the Emax was 131% and the EC50 came out at 36 nM.

For `CN1C(=O)N(c2c(F)cc(C#Cc3ccccc3)cc2F)C(=O)C[C@@]1(C)c1cn(C)c2ncccc12` [Example 9, (6S)-3-[2,6-Difluoro-4-(2-phenylethynyl)phenyl]-1,6-dimethyl-6-(1-methylpyrrolo[2,3-b]pyridin-3-yl)hexahydropyrimidine-2,4-dione], the Emax was 155% and the EC50 worked out at 81 nM.
